Assay results reported in article PMC7719162, “Positioning of an unprecedented spiro[5.5]undeca ring system into kinase inhibitor space” (Scientific Reports, 2020).
Where two headings read alike, the source gives them in different places.

Columns and labels:
[1] = test system: TNF-α; assay: Secreted TNF-α ELISA in LPS-induced BV-2 cells; assay type: cell-based, murine
Description: (§1) To evaluate the secreted level of Prostaglandin E2 (PGE2), Tumor necrosis factor (TNF-α), Interleukin (IL-6), Interleukin (IL-1β), BV2 cells were seeded in a 6 well plate at the density of 1.5 × 10^6 cells/well in DMEM and incubated for 24 h. Seeded cells sere pretreated and, activated with LPS for next 24 h. conditioned medium from treated cells were collected and stored at -80 degree for longer period of time. The amount of TNF-α, IL-1β, PGE2,and IL-6 were evaluated using the competitive enzyme immunoassay kit. PGE2 kit were obtained from (Cayman Chemical, Ann Arbor, MI, USA) and TNF-α, IL-1β, and IL-6 were measured using ELISA development kits (R&D Systems, Minneapolis, MN, USA). All the protocol was exactly followed as written in the manual.

[2] = molecular target: T1, Haspin (Homo sapiens, UniProt Q8TF76); assay: Kinase panel assay (radiolabelled); assay type: biochemical; conditions: ATP 10 μM
T1 construct: purchased Reaction Biology Corp
T1 sequence (Q8TF76 1-798): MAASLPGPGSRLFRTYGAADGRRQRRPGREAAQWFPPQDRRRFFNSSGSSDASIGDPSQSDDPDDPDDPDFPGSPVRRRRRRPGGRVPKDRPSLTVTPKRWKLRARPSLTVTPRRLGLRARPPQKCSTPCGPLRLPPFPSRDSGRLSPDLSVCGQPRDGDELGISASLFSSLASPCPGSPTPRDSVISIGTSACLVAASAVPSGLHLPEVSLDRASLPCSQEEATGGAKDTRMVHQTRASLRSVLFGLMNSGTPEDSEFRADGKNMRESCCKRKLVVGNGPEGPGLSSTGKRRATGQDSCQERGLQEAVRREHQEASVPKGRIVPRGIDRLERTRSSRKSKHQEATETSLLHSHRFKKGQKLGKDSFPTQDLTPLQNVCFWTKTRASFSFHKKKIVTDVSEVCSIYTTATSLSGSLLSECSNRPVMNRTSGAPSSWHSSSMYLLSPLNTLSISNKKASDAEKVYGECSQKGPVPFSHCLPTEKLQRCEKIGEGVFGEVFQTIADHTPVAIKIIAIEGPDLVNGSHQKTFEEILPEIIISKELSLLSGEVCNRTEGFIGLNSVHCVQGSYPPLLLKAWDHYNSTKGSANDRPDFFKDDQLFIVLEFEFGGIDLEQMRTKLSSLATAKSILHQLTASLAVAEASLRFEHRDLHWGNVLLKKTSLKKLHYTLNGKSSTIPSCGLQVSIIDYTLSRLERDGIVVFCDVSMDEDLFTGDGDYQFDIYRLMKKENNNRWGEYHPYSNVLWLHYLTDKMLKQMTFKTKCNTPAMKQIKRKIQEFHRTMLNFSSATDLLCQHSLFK

[3] = molecular target: T2, PI3Kd (p110d/p85a) (Homo sapiens, UniProt O00329); assay: Kinase panel assay (lipid kinase); assay type: biochemical; conditions: 30 μM compound, ATP 10 μM, duplicates Data 1/Data 2
T2 construct: purchased Reaction Biology Corp

[4] = molecular target: T3, TLK1 (Homo sapiens, UniProt Q9UKI8); assay: Kinase panel assay (radiolabelled); assay type: biochemical; conditions: ATP 10 μM
T3 construct: purchased Reaction Biology Corp
T3 sequence (Q9UKI8 1-766): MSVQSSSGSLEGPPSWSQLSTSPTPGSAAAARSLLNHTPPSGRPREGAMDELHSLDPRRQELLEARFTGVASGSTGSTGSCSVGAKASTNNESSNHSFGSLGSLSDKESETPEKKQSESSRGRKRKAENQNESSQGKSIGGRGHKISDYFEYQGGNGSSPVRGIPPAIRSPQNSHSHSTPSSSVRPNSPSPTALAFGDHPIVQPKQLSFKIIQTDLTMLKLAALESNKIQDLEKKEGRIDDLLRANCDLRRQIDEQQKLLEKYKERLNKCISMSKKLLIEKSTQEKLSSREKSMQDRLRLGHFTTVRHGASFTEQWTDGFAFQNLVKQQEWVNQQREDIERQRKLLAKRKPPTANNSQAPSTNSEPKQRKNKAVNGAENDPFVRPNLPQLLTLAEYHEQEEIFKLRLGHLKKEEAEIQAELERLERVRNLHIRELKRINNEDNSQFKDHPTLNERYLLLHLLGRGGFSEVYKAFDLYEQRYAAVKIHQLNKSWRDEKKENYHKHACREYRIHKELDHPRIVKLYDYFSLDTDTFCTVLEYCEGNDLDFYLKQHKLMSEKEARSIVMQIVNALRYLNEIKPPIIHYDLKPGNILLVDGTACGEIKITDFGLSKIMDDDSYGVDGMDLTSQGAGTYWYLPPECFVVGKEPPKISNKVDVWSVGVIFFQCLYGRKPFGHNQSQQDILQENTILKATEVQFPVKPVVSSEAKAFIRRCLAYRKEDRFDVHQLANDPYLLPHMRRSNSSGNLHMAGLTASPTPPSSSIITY

[5] = test system: PGE2; assay: Secreted PGE2 immunoassay in LPS-induced BV-2 cells; assay type: cell-based, murine
Description: as §1

[6] = molecular target: T4, P38b/MAPK11 (Homo sapiens, UniProt Q15759); assay: Kinase panel assay (radiolabelled); assay type: biochemical; conditions: ATP 10 μM
T4 construct: purchased Reaction Biology Corp

[7] = molecular target: T5, TRPM7/CHAK1 (Homo sapiens, UniProt Q96QT4); assay: Kinase panel assay (radiolabelled); assay type: biochemical; conditions: 30 μM compound, ATP 10 μM, duplicates Data 1/Data 2
T5 construct: purchased Reaction Biology Corp
Description: (§2) Every inhibitory activity of tested compounds was measured by radiolabelled method of Reaction Biology Corp). The radiolabelled ATP ([γ-^33P] ATP) replaced a substrate with ^33P-phosphorylated substrate so that the activity of a kinase was measured from the radiolabelled phosphorylated substrate. Kinase panel assay was tested at 30 μM testing compounds with an ATP concentration of 10 μM and a substrate concentration of 10 μM. % Residual activity against GSK3β was measured at 10 uM compounds 1 and 2. […] Curve fits of control compounds were performed where the enzyme activities at the highest concentration of compounds were less than 65%. The concentration of DMSO was controlled and raw data, % kinase activity was calculated relative to DMSO controls.

[8] = molecular target: T6, PDK3/PDHK3 (Homo sapiens, UniProt Q15120); assay: Kinase panel assay (radiolabelled); assay type: biochemical; conditions: 30 μM compound, ATP 10 μM, duplicates Data 1/Data 2
T6 construct: purchased Reaction Biology Corp
Description: as §2

[9] = molecular target: T7, PDK4/PDHK4 (Homo sapiens, UniProt Q16654); assay: Kinase panel assay (radiolabelled); assay type: biochemical; conditions: 30 μM compound, ATP 10 μM, duplicates Data 1/Data 2
T7 construct: purchased Reaction Biology Corp
Description: as §2

[10] = molecular target: T8, PDK2/PDHK2 (Homo sapiens, UniProt Q15119); assay: Kinase panel assay (radiolabelled); assay type: biochemical; conditions: 30 μM compound, ATP 10 μM, duplicates Data 1/Data 2
T8 construct: purchased Reaction Biology Corp
Description: as §2

[11] = molecular target: T9, EIF2AK1 (Homo sapiens, UniProt Q9BQI3); assay: Kinase panel assay (radiolabelled); assay type: biochemical; conditions: 30 μM compound, ATP 10 μM, duplicates Data 1/Data 2
T9 construct: purchased Reaction Biology Corp
Description: as §2

[12] = molecular target: T10, PDK1/PDHK1 (Homo sapiens, UniProt Q15118); assay: Kinase panel assay (radiolabelled); assay type: biochemical; conditions: 30 μM compound, ATP 10 μM, duplicates Data 1/Data 2
T10 construct: purchased Reaction Biology Corp
Description: as §2

[13] = 30 μM compound, duplicates Data 1/Data 2
[14] = 30 μM compound, duplicates Data 1/Data 2, read-out: % Enzyme Activity (relative to DMSO controls)
[15] = 30 μM, average ± SD, read-out: % Residual Activity at 30 μM
[16] = read-out: % Enzyme Activity (relative to DMSO controls)

T4 sequence (Q15759 whole entry): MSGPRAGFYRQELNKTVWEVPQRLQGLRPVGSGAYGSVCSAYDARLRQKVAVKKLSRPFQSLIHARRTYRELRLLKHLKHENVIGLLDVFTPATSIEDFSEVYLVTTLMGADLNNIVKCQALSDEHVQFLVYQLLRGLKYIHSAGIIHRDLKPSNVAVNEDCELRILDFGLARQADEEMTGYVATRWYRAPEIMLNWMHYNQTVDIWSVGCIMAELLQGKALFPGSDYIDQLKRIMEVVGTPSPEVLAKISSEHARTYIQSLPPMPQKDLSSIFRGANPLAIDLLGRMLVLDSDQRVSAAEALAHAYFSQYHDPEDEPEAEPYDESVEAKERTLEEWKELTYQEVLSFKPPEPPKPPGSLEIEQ
T9 sequence (Q9BQI3 whole entry): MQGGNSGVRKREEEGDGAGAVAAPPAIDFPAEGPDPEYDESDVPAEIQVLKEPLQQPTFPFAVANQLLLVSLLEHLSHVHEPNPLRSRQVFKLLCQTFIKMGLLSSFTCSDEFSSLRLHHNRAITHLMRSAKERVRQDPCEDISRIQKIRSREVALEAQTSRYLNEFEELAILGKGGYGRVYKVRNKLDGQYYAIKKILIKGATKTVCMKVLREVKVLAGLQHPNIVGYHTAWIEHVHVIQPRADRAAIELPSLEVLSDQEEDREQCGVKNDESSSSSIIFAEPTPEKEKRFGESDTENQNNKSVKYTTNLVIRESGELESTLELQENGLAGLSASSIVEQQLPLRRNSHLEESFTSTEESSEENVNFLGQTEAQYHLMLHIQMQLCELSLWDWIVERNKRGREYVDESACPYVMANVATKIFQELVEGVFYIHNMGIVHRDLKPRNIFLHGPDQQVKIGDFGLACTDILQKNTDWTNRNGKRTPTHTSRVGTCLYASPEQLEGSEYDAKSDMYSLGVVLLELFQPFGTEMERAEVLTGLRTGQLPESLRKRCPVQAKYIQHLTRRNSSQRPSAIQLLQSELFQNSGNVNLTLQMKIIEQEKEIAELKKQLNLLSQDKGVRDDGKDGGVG
T2 sequence (O00329 whole entry): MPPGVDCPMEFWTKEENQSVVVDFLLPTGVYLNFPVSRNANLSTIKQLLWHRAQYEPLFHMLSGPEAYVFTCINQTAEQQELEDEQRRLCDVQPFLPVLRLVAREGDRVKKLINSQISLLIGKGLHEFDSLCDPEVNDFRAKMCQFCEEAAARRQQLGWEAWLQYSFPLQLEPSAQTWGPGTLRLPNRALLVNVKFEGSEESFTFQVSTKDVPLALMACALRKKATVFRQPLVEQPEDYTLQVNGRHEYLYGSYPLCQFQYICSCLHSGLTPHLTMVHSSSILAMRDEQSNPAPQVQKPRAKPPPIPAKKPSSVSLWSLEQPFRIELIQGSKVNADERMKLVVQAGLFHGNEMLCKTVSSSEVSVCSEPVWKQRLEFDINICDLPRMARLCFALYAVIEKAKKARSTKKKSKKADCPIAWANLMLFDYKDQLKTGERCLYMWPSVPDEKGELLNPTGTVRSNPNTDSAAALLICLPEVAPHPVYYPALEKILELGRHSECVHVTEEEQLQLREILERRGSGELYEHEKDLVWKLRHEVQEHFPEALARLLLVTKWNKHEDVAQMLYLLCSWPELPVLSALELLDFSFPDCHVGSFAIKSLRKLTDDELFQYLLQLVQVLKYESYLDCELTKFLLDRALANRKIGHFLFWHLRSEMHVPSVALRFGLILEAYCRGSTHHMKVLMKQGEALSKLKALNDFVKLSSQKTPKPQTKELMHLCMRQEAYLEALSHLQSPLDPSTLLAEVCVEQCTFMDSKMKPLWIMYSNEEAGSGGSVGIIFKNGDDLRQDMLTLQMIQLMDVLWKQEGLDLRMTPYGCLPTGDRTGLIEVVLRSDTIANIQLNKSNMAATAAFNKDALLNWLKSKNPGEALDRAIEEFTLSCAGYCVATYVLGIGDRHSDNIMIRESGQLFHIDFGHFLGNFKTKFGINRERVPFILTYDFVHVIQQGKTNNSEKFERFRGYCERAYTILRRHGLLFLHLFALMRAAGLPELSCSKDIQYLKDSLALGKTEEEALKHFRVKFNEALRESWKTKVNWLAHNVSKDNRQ
T2 sequence (P27986 whole entry partner): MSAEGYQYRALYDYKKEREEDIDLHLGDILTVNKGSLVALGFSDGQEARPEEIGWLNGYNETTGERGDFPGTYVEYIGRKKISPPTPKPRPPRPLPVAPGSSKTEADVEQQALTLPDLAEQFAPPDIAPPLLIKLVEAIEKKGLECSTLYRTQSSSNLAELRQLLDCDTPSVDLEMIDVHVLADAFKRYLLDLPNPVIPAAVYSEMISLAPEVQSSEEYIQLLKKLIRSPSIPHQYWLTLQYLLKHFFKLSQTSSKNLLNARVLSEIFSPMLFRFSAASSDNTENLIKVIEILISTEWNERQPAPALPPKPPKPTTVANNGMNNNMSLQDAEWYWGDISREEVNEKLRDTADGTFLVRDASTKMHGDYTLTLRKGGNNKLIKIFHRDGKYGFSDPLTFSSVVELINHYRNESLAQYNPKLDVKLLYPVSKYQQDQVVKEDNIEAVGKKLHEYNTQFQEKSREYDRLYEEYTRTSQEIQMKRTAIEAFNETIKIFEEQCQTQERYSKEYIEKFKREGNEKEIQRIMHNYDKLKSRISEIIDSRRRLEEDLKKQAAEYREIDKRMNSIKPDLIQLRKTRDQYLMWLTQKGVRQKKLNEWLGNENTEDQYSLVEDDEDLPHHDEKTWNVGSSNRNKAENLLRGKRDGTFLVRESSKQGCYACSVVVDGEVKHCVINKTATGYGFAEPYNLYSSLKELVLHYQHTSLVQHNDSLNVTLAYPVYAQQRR
T7 sequence (Q16654 whole entry): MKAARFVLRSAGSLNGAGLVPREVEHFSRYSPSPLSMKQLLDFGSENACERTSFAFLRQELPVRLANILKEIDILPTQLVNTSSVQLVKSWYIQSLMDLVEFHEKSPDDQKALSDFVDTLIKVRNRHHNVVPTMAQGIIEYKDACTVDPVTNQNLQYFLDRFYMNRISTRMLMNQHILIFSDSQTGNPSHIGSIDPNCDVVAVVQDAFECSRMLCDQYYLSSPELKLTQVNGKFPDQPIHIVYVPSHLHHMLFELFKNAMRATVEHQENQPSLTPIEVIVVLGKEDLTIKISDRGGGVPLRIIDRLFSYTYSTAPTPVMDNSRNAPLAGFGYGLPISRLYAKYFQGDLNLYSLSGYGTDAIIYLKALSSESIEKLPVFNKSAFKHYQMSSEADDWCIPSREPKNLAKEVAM
T6 sequence (Q15120 whole entry): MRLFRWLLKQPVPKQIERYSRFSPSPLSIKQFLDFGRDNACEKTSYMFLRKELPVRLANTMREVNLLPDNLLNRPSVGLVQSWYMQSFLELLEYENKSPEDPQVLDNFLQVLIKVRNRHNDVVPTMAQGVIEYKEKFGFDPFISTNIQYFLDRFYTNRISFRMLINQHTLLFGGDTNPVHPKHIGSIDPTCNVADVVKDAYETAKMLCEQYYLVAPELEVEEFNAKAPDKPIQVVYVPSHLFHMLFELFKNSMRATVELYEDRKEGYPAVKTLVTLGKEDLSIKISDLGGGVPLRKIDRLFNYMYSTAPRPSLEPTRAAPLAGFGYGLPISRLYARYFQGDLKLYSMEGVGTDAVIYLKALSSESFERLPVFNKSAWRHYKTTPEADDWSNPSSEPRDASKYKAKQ
T10 sequence (Q15118 29-436): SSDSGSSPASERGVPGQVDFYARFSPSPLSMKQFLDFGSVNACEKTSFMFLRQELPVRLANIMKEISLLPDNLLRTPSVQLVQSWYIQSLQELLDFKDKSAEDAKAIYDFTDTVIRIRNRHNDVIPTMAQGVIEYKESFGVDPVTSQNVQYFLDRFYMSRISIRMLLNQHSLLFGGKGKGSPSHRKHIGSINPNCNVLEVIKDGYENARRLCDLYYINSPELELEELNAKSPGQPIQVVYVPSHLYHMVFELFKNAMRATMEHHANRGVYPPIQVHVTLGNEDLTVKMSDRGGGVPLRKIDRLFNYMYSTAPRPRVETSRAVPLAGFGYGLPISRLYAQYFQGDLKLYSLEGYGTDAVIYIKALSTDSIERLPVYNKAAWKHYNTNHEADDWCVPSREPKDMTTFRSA

## O=C1C=CC2(C=C1)OCC(Cc1cn(-c3cccc(Cl)c3)nn1)C(=O)N2c1ccccc1 (stereo not shown) [2d, 3-((1-(3-Chlorophenyl)-1H-1,2,3-triazol-4-yl)methyl)-5-phenyl-1-oxa-5-azaspiro[5.5]undeca-7,10-diene-4,9-dione]
[1]
  TNF-α level: concentration-dependent manner
[2]; [13]
  % Enzyme Activity (relative to DMSO controls): 70.31%
[2]; [14]
  remaining activity at 30 µM: 71.6%
[2]; [15]
  remaining activity at 30 µM: 70.9 ± 0.9%
[3]
  % Enzyme Activity (relative to DMSO controls): 108.46%
[3]; [16]
  remaining activity at 30 µM: 109%
[4]; [13]
  % Enzyme Activity (relative to DMSO controls): 81.34%
[4]; [14]
  remaining activity at 30 µM: 82.1%
[4]; [15]
  remaining activity at 30 µM: 81.7 ± 0.5%
[5]
  secreted level of PGE2: concentration-dependent manner
[6]; [13]
  % Enzyme Activity (relative to DMSO controls): 109.52%
[6]; [14]
  remaining activity at 30 µM: 110%
[6]; [15]
  remaining activity at 30 µM: 109.9 ± 0.5%
[7]
  % Enzyme Activity (relative to DMSO controls): 63.76%
[7]; [16]
  remaining activity at 30 µM: 67.5%
[8]
  % Enzyme Activity (relative to DMSO controls): 82.28%
[8]; [16]
  remaining activity at 30 µM: 85.9%
[9]
  % Enzyme Activity (relative to DMSO controls): 105.05%
[9]; [16]
  remaining activity at 30 µM: 111%
[10]
  % Enzyme Activity (relative to DMSO controls): 63.30%
[10]; [16]
  remaining activity at 30 µM: 64.3%
[11]
  % Enzyme Activity (relative to DMSO controls): 87.95%
[11]; [16]
  remaining activity at 30 µM: 91.7%
[12]
  % Enzyme Activity (relative to DMSO controls): 85.01%
[12]; [16]
  remaining activity at 30 µM: 85.6%
